Measurements: patent US12187721B2, “Protein tyrosine phosphatase inhibitors” (Array BioPharma Inc., priority 2018, dated 2025)
Like-named read-outs stand apart in the source and are kept apart here.

Biological target: T1, full-length SHP2 (His6-tagged SHP2(2-527)) (Homo sapiens, UniProt Q06124)
T1 construct: His6-tagged SHP2(2-527); His6; made in house; host or cells: E. coli
Assay: SHP2 Enzymatic Assay (fluorescence intensity kinetic assay, DiFMUP hydrolysis)
Assay type: biochemical
Method in brief: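 1 nM His6-SHP2(2-527), activated by 1 μM bis-phosphopeptide, hydrolysed 50 μM DiFMUP in 25 mM HEPES pH 7.4 with 1 mM DTT, 50 mM KCl and 2% DMSO. DiFMU fluorescence (Ex 355/Em 460 nm) was read kinetically for 15 min at ambient temperature.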

T1 sequence (Q06124 2-527): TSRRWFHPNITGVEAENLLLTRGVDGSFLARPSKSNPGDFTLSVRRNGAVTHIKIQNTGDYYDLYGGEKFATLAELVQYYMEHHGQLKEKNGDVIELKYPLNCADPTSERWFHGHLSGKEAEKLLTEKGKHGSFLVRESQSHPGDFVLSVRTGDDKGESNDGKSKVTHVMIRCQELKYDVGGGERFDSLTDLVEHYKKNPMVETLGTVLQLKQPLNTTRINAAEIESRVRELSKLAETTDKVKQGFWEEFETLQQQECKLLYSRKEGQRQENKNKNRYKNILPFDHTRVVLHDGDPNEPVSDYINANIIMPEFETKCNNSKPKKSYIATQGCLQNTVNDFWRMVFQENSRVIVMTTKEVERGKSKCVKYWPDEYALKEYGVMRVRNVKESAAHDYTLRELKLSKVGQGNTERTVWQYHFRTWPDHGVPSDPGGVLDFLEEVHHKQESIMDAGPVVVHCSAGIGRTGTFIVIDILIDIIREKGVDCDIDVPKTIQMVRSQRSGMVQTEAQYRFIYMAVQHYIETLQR

SMILES	IC50	IC50 (full-length SHP2 with 1 μM activating peptide, 50 μM DiFMUP, single assay or mean of multiple assays, read-out: Biological Example 1 IC50)
C[C@@H]1OCC2(CCN(c3cnc4nc(Sc5ccnc(N)c5C(F)(F)F)ccc4n3)CC2)[C@@H]1N [Example 136, (3S,4S)-8-(6-((2-amino-3-(trifluoromethyl)pyridin-4-yl)thio)pyrido[2,3-b]pyrazin-2-yl)-3-methyl-2-oxa-8-azaspiro[4.5]decan-4-amine]	0.16 µM	
Nc1nccc(Sc2ccc3nc(N4CC5CCC4CNC5)cnc3n2)c1Cl (stereo not drawn) [Example 202, 4-((2-(3,6-diazabicyclo[3.2.2]nonan-6-yl)pyrido[2,3-b]pyrazin-6-yl)thio)-3-chloropyridin-2-amine]	0.132 µM	
Nc1nccc(Sc2ccc3nc(N4CCC(O)(CO)CC4)cnc3n2)c1Cl [Example 198, 1-(6-((2-amino-3-chloropyridin-4-yl)thio)pyrido[2,3-b]pyrazin-2-yl)-4-(hydroxymethyl)piperidin-4-ol]	3.99 µM	
C[C@@H]1C[C@H](N)CCN1c1cnc2nc(Sc3ccnc(N)c3Cl)ccc2n1 [Example 121, 4-((2-((2R,4R)-4-amino-2-methylpiperidin-1-yl)pyrido[2,3-h]pyrazin-6-yl)thio)-3-chloropyridin-2-amine]	0.099 µM	
Nc1nccc(Sc2ccc3nc(N4CCC5(CC4)Cc4c(Cl)cccc4[C@@H]5N)cnc3n2)c1Cl [Example 220, (R)-1′-(6-((2-amino-3-chloropyridin-4-yl)thio)pyrido[2,3-b]pyrazin-2-yl)-4-chloro-1,3-dihydrospiro[indene-2,4′-piperidin]-1-amine]	0.096 µM	
CN(CCN)c1cnc2nc(-c3cccc(Cl)c3Cl)ccc2n1 [Example 29, N1-(6-(2,3-dichlorophenyl)pyrido[2,3-b]pyrazin-2-yl)-N1-methylethane-1,2-diamine]	0.32 µM	
CC(C)(C)OC(=O)N[C@H]1[C@@H]2C[C@H]1CN(c1cnc3nc(Sc4ccnc(N)c4Cl)ccc3n1)C2 [Example 138]	0.574 µM	
NCC1CC2CCCC(C1)N2c1cnc2nc(Sc3ccnc(N)c3Cl)ccc2n1 (stereo not drawn) [Example 101, 4-((2-(3-(aminomethyl)-9-azabicyclo[3.3.1]nonan-9-yl)pyrido[2,3-b]pyrazin-6-yl)thio)-3-chloropyridin-2-amine]	0.056 µM	
C[C@@H]1OCC2(CCN(c3cnc4nc(Sc5ccnc(N6CC[C@H](CO)C6)c5Cl)ccc4n3)CC2)[C@@H]1N [Example 87, ((S)-1-(4-((2-((3S,4S)-4-amino-3-methyl-2-oxa-8-azaspiro[4.5]decan-8-yl)pyrido[2,3-b]pyrazin-6-yl)thio)-3-chloropyridin-2-yl)pyrrolidin-3-yl)methanol]	0.126 µM	
Cc1ccc2c(n1)CC1(CCN(c3cnc4nc(Sc5ccnc(N)c5Cl)ccc4n3)CC1)[C@@H]2N [Example 114, (S)-1′-(6-((2-amino-3-chloropyridin-4-yl)thio)pyrido[2,3-b]pyrazin-2-yl)-2-methyl-5,7-dihydrospiro[cyclopenta[b]pyridine-6,4′-piperidin]-5-amine]		0.04 µM
C[C@@H]1OCC2(CCN(c3cnc4nc(Sc5ccnc(N6CC[C@H](O)C6)c5Cl)ccc4n3)CC2)[C@@H]1N [Example 88, (S)-1-(4-((2-((3S,4S)-4-amino-3-methyl-2-oxa-8-azaspiro[4.5]decan-8-yl)pyrido[2,3-b]pyrazin-6-yl)thio)-3-chloropyridin-2-yl)pyrrolidin-3-ol]	0.105 µM	
Cc1nccc(Sc2ccc3nc(N4CCC5(CC4)Cc4cc(O)ccc4[C@H]5N)cnc3n2)c1Cl [Example 156, (S)-1-amino-1′-(6-((3-chloro-2-methylpyridin-4-yl)thio)pyrido[2,3-b]pyrazin-2-yl)-1,3-dihydrospiro[indene-2,4′-piperidin]-5-ol]	0.032 µM	
NCC1CN(c2cnc3nc(Sc4ccnc(N)c4Cl)ccc3n2)CCO1 (stereo not drawn) [Example 62, 4-((2-(2-(aminomethyl)morpholino)pyrido[2,3-b]pyrazin-6-yl)thio)-3-chloropyridin-2-amine]	0.165 µM	
CN(C)C1C[C@@H]2CC[C@@H](C1)N2c1cnc2nc(Sc3ccnc(N)c3Cl)ccc2n1 (stereo partly drawn) [Example 92, (1R,3s,5S)-8-(6-((2-amino-3-chloropyridin-4-yl)thio)pyrido[2,3-b]pyrazin-2-yl)-N,N-dimethyl-8-azabicyclo[3.2.1]octan-3-amine]	0.066 µM	
Nc1nccc(Sc2ccc3nc(N4CCC5(CC4)CNC5)cnc3n2)c1Cl [Example 54, 4-((2-(2,7-diazaspiro[3.5]nonan-7-yl)pyrido[2,3-b]pyrazin-6-yl)thio)-3-chloropyridin-2-amine]	0.06 µM	
Nc1nccc(Sc2ccc3nc(N4CCC5(CC4)Cc4cc(Cl)ccc4[C@@H]5N)cnc3n2)c1Cl [Example 170, (R)-1′-(6-((2-amino-3-chloropyridin-4-yl)thio)pyrido[2,3-b]pyrazin-2-yl)-5-chloro-1,3-dihydrospiro[indene-2,4′-piperidin]-1-amine]	0.062 µM	
COc1nccc(Sc2ccc3nc(N4CCC(C)(N)CC4)cnc3n2)c1Cl [Example 20, 1-(6-((3-chloro-2-methoxypyridin-4-yl)thio)pyrido[2,3-b]pyrazin-2-yl)-4-methylpiperidin-4-amine]	0.36 µM	

SMILES	IC50	IC50 (full-length SHP2 with 1 μM activating peptide, 50 μM DiFMUP, single assay or mean of multiple assays, read-out: Biological Example 1 IC50)
Nc1nccc(Sc2ccc3nc(N4CCCC45CC(N)C5)cnc3n2)c1Cl (stereo not drawn) [Example 154, 5-(6-((2-amino-3-chloropyridin-4-yl)thio)pyrido[2,3-b]pyrazin-2-yl)-5-azaspiro[3.4]octan-2-amine]	1.21 µM	
CC1(N)CCN(c2cnc3nc(-c4ccnc(N5CC[C@@H](O)C5)c4Cl)ccc3n2)CC1 [Example 46, (R)-1-(4-(2-(4-amino-4-methylpiperidin-1-yl)pyrido[2,3-b]pyrazin-6-yl)-3-chloropyridin-2-yl)pyrrolidin-3-ol]	2.9 µM	
C[C@]1(N)CCCN(c2cnc3nc(Sc4ccnc(N)c4Cl)ccc3n2)CC1 (single isomer, unassigned) [Example 75]	0.03 µM	
Nc1nccc(Sc2ccc3nc(N4CC5CCC(N)C5C4)cnc3n2)c1Cl (stereo not drawn) [Example 100, 2-(6-((2-amino-3-chloropyridin-4-yl)thio)pyrido[2,3-b]pyrazin-2-yl)octahydrocyclopenta[c]pyrrol-4-amine]	0.121 µM	
C[C@@H]1OCC2(CCN(c3cnc4nc(Sc5cc(N)ncc5Cl)ccc4n3)CC2)[C@@H]1N [Example 144, (3S,4S)-8-(6-((2-amino-5-chloropyridin-4-yl)thio)pyrido[2,3-b]pyrazin-2-yl)-3-methyl-2-oxa-8-azaspiro[4,5]decan-4-amine]	0.089 µM	
COc1ccc(-c2ccc3nc(N4CCC(C)(N)CC4)cnc3n2)c(Cl)c1Cl [Example 30, 1-(6-(2,3-dichloro-4-methoxyphenyl)pyrido[2,3-b]pyrazin-2-yl)-4-methylpiperidin-4-amine]	0.42 µM	
C[C@@H]1OCC2(CCN(c3cnc4nc(N5CCCc6ccccc65)ccc4n3)CC2)[C@@H]1N [Example 69, (3S,4S)-8-(6-(3,4-dihydroquinolin-1(2H)-yl)pyrido[2,3-b]pyrazin-2-yl)-3-methyl-2-oxa-8-azaspiro[4,5]decan-4-amine]	0.079 µM	
Nc1cc(Sc2ccc3nc(N4CCC5(CC4)Cc4ncccc4[C@H]5N)cnc3n2)c(Cl)cn1 [Example 133, (S)-1′-(6-((2-amino-5-chloropyridin-4-yl)thio)pyrido[2,3-b]pyrazin-2-yl)-5,7-dihydrospiro[cyclopenta[b]pyridine-6,4′-piperidin]-5-amine]	0.092 µM	
NCC1CCN(c2cnc3nc(-c4cccc(Cl)c4Cl)ccc3n2)C1 (stereo not drawn) [Example 28, (1-(6-(2,3-dichlorophenyl)pyrido[2,3-b]pyrazin-2-yl)pyrrolidin-3-yl)methanamine]	0.83 µM	
CC1(N)CCN(c2cnc3nc(Sc4ccnc(N5CCCC5)c4Cl)ccc3n2)CC1 [Example 49, 1-(6-((3-chloro-2-(pyrrolidin-1-yl)pyridin-4-yl)thio)pyrido[2,3-b]pyrazin-2-yl)-4-methylpiperidin-4-amine]	0.063 µM	
N[C@@H]1c2ccccc2CC12CCN(c1cnc3nc(Sc4ccnc(NCCO)c4Cl)ccc3n1)CC2 [Example 110, (S)-2-((4-((2-(1-amino-1,3-dihydrospiro[indene-2,4′-piperidin]-1′-yl)pyrido[2,3-b]pyrazin-6-yl)thio)-3-chloropyridin-2-yl)amino)ethan-1-ol]	0.044 µM	
N[C@@H]1c2ccccc2CC12CCN(c1cnc3nc(Sc4cccnc4C(F)(F)F)ccc3n1)CC2 [Example 162, (S)-1′-(6-((2-(trifluoromethyl)pyridin-3-yl)thio)pyrido[2,3-b]pyrazin-2-yl)-1,3-dihydrospiro[indene-2,4′-piperidin]-1-amine]	0.039 µM	
C[C@@H]1OCC2(CCN(c3ccc4nc(Sc5cccc(Cl)c5Cl)cnc4n3)CC2)[C@@H]1N [Example 5, (3S,4S)-8-(2-((2,3-dichlorophenyl)thio)pyrido[2,3-b]pyrazin-6-yl)-3-methyl-2-oxa-8-azaspiro[4,5]decan-4-amine]	4 µM	
C[C@H]1CC[C@H](N)CN1c1cnc2nc(Sc3ccnc(N)c3Cl)ccc2n1 [Example 216, 4-((2-((2S,5S)-5-amino-2-methylpiperidin-1-yl)pyrido[2,3-b]pyrazin-6-yl)thio)-3-chloropyridin-2-amine]	3.08 µM	
C[C@@H]1OCC2(CCN(c3cnc4nc(N5CCCc6ncccc65)ccc4n3)CC2)[C@@H]1N [Example 135, (3S,4S)-8-(6-(3,4-dihydro-1,5-naphthyridin-1(2H)-yl)pyrido[2,3-b]pyrazin-2-yl)-3-methyl-2-oxa-8-azaspiro[4.5]decan-4-amine]	4.03 µM	
Nc1nccc(Sc2ccc3nc(N4[C@@H]5CCC[C@H]4CC(N)C5)cnc3n2)c1Cl (stereo partly drawn) [Example 56, (1R,5S)-9-(6-((2-amino-3-chloropyridin-4-yl)thio)pyrido[2,3-b]pyrazin-2-yl)-9-azabicyclo[3.3.1]nonan-3-amine]	0.042 µM	
